Experimental data reported in patent US9714249B2 (Novartis AG, priority 2013, dated 2017).

Columns and labels:
BRD3 (His-Brd3(20-477)) = BRD3 (His-Brd3(20-477)) (Homo sapiens (Human), UniProt Q15059); assay: TR-FRET in-vitro binding assay for BRD3; conditions: acetyl-histone H4 peptide
Experimental: All assays were performed in 384 well microtiter plates. Each assay plate contained 8-point serial dilutions for 40 test compounds, plus 16 high- and 16 low controls. Liquid handling and incubation steps were done on an Innovadyne Nanodrop Express equipped with a robotic arm (Thermo CatX, Perkin Elmer/Caliper Twister II) and an incubator (Liconic STX40, Thermo Cytomat 2C450). The assay plates were prepared by addition of 50 nl per well of compound solution in 90% DMSO HummingBird nanodispenser (Zinsser Analytic). The assay was started by stepwise addition of 4.5 μl per well of bromo domain protein (50 mM HEPES, pH 7.5, 0.005% Tween20, 0.1% BSA, 50 mM NaCl, 45 nM His-Brd2(60-472) or 45 nM His-Brd3(20-477) or 45 nM His-Brd4(44-477) all proteins produced in-house) and 4.5 μl per well of peptide solution (50 mM HEPES, pH 7.5, 0.005% Tween20, 0.1% BSA, 50 mM NaCl, 60 nM acetyl-histone H4 (AcK 5, 8, 12, 16) (Biosyntan GmbH)). Reactions were incubated at 30° C. for 35 minutes. Subsequently 4.5 μl per well detection mix (50 mM HEPES, pH 7.5, 0.005% Tween20, 0.1% BSA, 50 mM NaCl, 3 nM Eu-labeled anti-His6 antibody, 21 nM streptavidin-allophycocyanin) were added. After 35 minutes incubation at 30° C., plates were measured in a Perkin Elmer EnVision multilabel reader. Concentrations causing 50% inhibition (1050) values were determined from percent inhibition values at different compound concentrations by non-linear regression analysis.
Test compounds were dissolved in DMSO (10 mM) and transferred into 1.4 mL flat bottom or V-shaped Matrix tubes carrying a unique 2D matrix. The stock solutions were stored at […] if not used immediately. For the test procedure the vials were defrosted and identified by a scanner whereby a working sheet was generated that guided the subsequent working steps. Compound dilutions were made in 96 well plates. This format enabled the assay of maximally 40 individual test compounds at 8 concentrations (single points) including 4 reference compounds, if desired (known BET inhibitors from the prior art, for this and other assays of the type disclosed herein). The dilution protocol included the production of “pre-dilution plates”, “master plates” and “assay plates”.
Pre-dilution plates: 96 polypropylene well plates were used as pre-dilution plates. A total of 4 pre-dilution plates were prepared including 10 test compounds each on the plate positions A1-A10, one standard compound at A11 and one DMSO control at A12. All dilution steps were done on a HamiltonSTAR robot. Master plates: 30 μL of individual compound dilutions including standard compound and controls of the 4 “pre-dilution plates” were transferred into a 384 “master plate” including the following concentrations 10000, 3003, 1000, 300, 100, 30, 10 and 3 μM, respectively in 90% of DMSO. Assay plates: Identical “assay plates” were then prepared by pipetting 50 nL each of compound dilutions of the “master plates” into 384-well “assay plates” by means of a HummingBird 384-channel dispenser. These plates were used directly for the assay which was performed in a total volume of 13.55 μL. This led to a final compound concentration of 37, 11, 3.7, 1.1, 0.37, 0.11, 0.037 and 0.011 μM and a final DMSO concentration of 0.37% in the assay. Cell Growth Inhibition Assay

K-562 cells = assay: Cell growth inhibition assay (CellTiter-Glo), K-562; assay type: cell-based, human; conditions: K-562, 4 days; for GI50: Homo sapiens, K562, 96 h, half-maximal growth inhibition; for K-562 TGI: total growth inhibition
Experimental: The human leukemia cell lines MV-4-11, THP-1 and K-562 were employed to characterize the effect of BET inhibitors on cellular proliferation and viability. Cells were obtained from the American Type Culture Collection (ATCC) and cultured at 37° C. in a humidified 5% CO2 incubator in the following media: MV-4-11: DMEM high glucose (Animed #1-26F01-I), 10% FCS (Animed #2-01F26-I), 4 mM L-Glutamine (Animed #5-10K50), 1 mM Sodium Pyruvate (Animed # G03625P), 1× Penicillin-Streptomycin (Animed # F12478P); K-562: Iscove's MEM (Animed #1-28F16-I), 10% FCS (Animed #2-01F26-I), 4 mM L-Glutamine (Animed #5-10K50), 1× Penicillin-Streptomycin (Animed # F12478P); THP-1: RPMI-1640 (Animed #1-41F01-I), 10% FCS (Animed #2-01F26-I), 2 mM L-Glutamine (Animed #5-10K50), 10 mM HEPES (Animed #5-31F100), 1 mM Sodium Pyruvate (Animed # G03625P), 1× Penicillin-Streptomycin (Animed # F12478P). The AML lines MV-4-11 and THP-1 are very sensitive to BET inhibitors and show massive cell death upon BET inhibition (Zuber et al., Nature, 478 (2011), 524-8). Compound-mediated suppression of cell proliferation/viability was assessed by quantification of cellular ATP levels using the CellTiter-Glo (CTG) reagent (Promega). Briefly, cells were seeded in 20 μl fresh medium into 384-well plates, followed by addition of 5 μl medium containing compound dilutions at 5-fold their final intended concentration. Dose-response effects were assessed by 3-fold serial dilutions of the test compound, starting at 10 μM. Following incubation of the cells for 4 days at 37° C. and 5% CO2, the effect of inhibitors on cell viability was quantified following addition of 20 μl CTG and luminescence quantification (integration time: 100 ms) as per vendor manual, using a correspondingly equipped Tecan M200 multi-mode platereader (TECAN, Switzerland). For data analysis, the assay background value determined in wells containing medium, but no cells, was subtracted from all data points. To enable differentiation of cytotoxic from cytostatic compounds, the number of viable cells is assessed relative to that observed at the time of compound addition using a separate cell plate (day 0). The effect of a particular test compound concentration on cell proliferation/viability is expressed as percentage of the background- and day 0-corrected luminescence reading obtained for cells treated with vehicle only (DMSO, 0.1% final concentration), which is set as 100%, whereas that luminescence reading for wells containing medium is set as −100%. Compound concentrations leading to half-maximal (1050) and total growth inhibition (TGI) were determined using standard four parameter curve fitting.

BRD3 (His-Brd3(20-477)), sequence (Q15059 20-477, species assumed): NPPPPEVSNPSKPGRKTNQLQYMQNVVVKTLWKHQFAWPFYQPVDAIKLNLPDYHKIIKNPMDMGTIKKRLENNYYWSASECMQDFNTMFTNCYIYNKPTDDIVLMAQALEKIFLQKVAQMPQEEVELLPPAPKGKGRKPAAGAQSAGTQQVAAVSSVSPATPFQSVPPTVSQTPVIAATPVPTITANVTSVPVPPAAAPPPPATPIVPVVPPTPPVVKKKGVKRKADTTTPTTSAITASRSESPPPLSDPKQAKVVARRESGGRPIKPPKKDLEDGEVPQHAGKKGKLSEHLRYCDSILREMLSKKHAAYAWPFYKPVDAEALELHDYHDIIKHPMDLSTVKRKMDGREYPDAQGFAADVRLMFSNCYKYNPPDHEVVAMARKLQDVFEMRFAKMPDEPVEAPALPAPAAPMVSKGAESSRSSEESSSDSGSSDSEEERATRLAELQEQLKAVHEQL

SMILES	IC50 (BRD3 (His-Brd3(20-477)))	GI50 (K-562 cells)	K-562 TGI (K-562 cells)
COc1ncc(-n2nc3c(c2C)C(=O)N(c2cc(C)c(=O)n(C)c2)C3c2ccc(Cl)cc2)c(OC)n1 (stereo not drawn) [Example 14, 6-(4-chlorophenyl)-2-(2,4-dimethoxypyrimidin-5-yl)-5-(1,5-dimethyl-6-oxo-1,6-dihydropyridin-3-yl)-3-methyl-5,6-dihydropyrrolo[3,4-c]pyrazol-4(2H)-one]	74 nM	615 nM	>10000 nM
COc1ccc(-n2nc(C)c3c2C(c2ccc(Cl)cc2)N(c2cc(C)c(=O)n(C)c2)C3=O)cc1 (stereo not drawn) [Example 13, 6-(4-chlorophenyl)-5-(1,5-dimethyl-6-oxo-1,6-dihydropyridin-3-yl)-1-(4-methoxyphenyl)-3-methyl-5,6-dihydropyrrolo[3,4-c]pyrazol-4(1H)-one]	75.5 nM	484 nM	>10000 nM
Cc1[nH]nc2c1C(=O)N(c1cc(Cl)c(=O)n(C)c1)[C@@H]2c1ccc(Cl)cc1 [Example 28, (R)-5-(5-chloro-1-methyl-6-oxo-1,6-dihydropyridin-3-yl)-6-(4-chlorophenyl)-3-methyl-5,6-dihydropyrrolo[3,4-c]pyrazol-4(2H)-one]	69 nM	318 nM	>10000 nM
Cc1[nH]nc2c1C(=O)N(c1cc(Cl)c(=O)n(C)c1)C2c1ccc(Cl)cc1 (stereo not drawn) [Example 6, 5-(5-chloro-1-methyl-6-oxo-1,6-dihydropyridin-3-yl)-6-(4-chlorophenyl)-3-methyl-5,6-dihydropyrrolo[3,4-c]pyrazol-4(2H)-one]	80 nM	558 nM	>10000 nM
COc1ccc(-n2nc3c(c2C)C(=O)N(c2cc(C)c(=O)n(C)c2)C3c2ccc(Cl)cc2)cn1 (stereo not drawn) [Example 20a, 6-(4-chlorophenyl)-5-(1,5-dimethyl-6-oxo-1,6-dihydropyridin-3-yl)-2-(6-methoxypyridin-3-yl)-3-methyl-5,6-dihydropyrrolo[3,4-c]pyrazol-4(2H)-one]	50 nM	236 nM	>10000 nM
COc1ncc(-n2nc(C)c3c2C(c2ccc(Cl)cc2)N(c2cc(Cl)c(=O)n(C)c2)C3=O)cn1 (stereo not drawn) [Example 8a, 5-(5-chloro-1-methyl-6-oxo-1,6-dihydropyridin-3-yl)-6-(4-chlorophenyl)-1-(2-methoxypyrimidin-5-yl)-3-methyl-5,6-dihydropyrrolo[3,4-c]pyrazol-4(1H)-one]	120 nM	991 nM	>10000 nM

Now from value to compound, other results behind:

IC50 (BRD3 (His-Brd3(20-477)))	GI50 (K-562 cells)	SMILES	K-562 TGI (K-562 cells)
30 nM	141 nM	Cc1cc(N2C(=O)c3c(C4CC4)nn(C)c3C2c2ccc(Cl)cc2)cn(C)c1=O (stereo not drawn) [Example 1, 6-(4-chlorophenyl)-3-cyclopropyl-5-(1,5-dimethyl-6-oxo-1,6-dihydropyridin-3-yl)-1-methyl-5,6-dihydropyrrolo[3,4-c]pyrazol-4(1H)-one]	>10000 nM
62 nM	336 nM	Cc1nn(C)c2c1C(=O)N(c1cc(C)c(=O)n(C)c1)C2c1ccc(Cl)cc1 (stereo not drawn) [Example 10, 6-(4-chlorophenyl)-5-(1,5-dimethyl-6-oxo-1,6-dihydropyridin-3-yl)-1,3-dimethyl-5,6-dihydropyrrolo[3,4-c]pyrazol-4(1H)-one]	>10000 nM
34 nM	268 nM	Cc1cc(N2C(=O)c3c(C4CC4)nn(CCO)c3C2c2ccc(Cl)cc2)cn(C)c1=O (stereo not drawn) [Example 3, 6-(4-chlorophenyl)-3-cyclopropyl-5-(1,5-dimethyl-6-oxo-1,6-dihydropyridin-3-yl)-1-(2-hydroxyethyl)-5,6-dihydropyrrolo[3,4-c]pyrazol-4(1H)-one]	>10000 nM
73 nM	302 nM	Cc1nn(-c2cccnc2F)c2c1C(=O)N(c1cc(C)c(=O)n(C)c1)C2c1ccc(Cl)cc1 (stereo not drawn) [Example 19, 6-(4-chlorophenyl)-5-(1,5-dimethyl-6-oxo-1,6-dihydropyridin-3-yl)-1-(2-fluoropyridin-3-yl)-3-methyl-5,6-dihydropyrrolo[3,4-c]pyrazol-4(1H)-one]	>10000 nM
